In ChEMBL document CHEMBL1152890, “Synthesis and evaluation of a novel series of heterocyclic oleanolic acid derivatives with anti-osteoclast formation activity” (Eur J Med Chem, 2009):

Experiments:
Format in all cases: functional
[1] = Antiosteoclast activity in ICR mouse osteoblast like cells co-cultured with bone marrow cells assessed as effect on 1-alpha,25(OH)2D3-induced TRAP-positive osteoclast like multinucleated cell formation at 20 uM after 6 days medium replaced every 2 days relative to control
[2] = Antiosteoclast activity in ICR mouse osteoblast like cells co-cultured with bone marrow cells assessed as effect on 1-alpha,25(OH)2D3-induced TRAP-positive osteoclast like multinucleated cell formation at 2 uM after 6 days medium replaced every 2 days relative to control
[3] = Antiosteoclast activity in ICR mouse osteoblast like cells co-cultured with bone marrow cells assessed as recovery of 1-alpha,25(OH)2D3-induced TRAP-positive osteoclast like multinucleated cell formation at 20 uM after 6 days drug removal after 2 days relative to control

Row | Compound | Activity [1] [%] | Activity [2] [%] | Activity [3] [%]
1 | CC[C@H](C)[C@H](NC(=O)[C@]12CCC(C)(C)C[C@H]1C1=CC[C@@H]3[C@@]4(C)Cc5c([nH]c6ccccc56)C(C)(C)[C@@H]4CC[C@@]3(C)[C@]1(C)CC2)C(=O)OC | 98.4 |  | 
2 | CC(C)[C@H](NC(=O)[C@]12CCC(C)(C)C[C@H]1C1=CC[C@@H]3[C@@]4(C)Cc5nccnc5C(C)(C)[C@@H]4CC[C@@]3(C)[C@]1(C)CC2)C(=O)O | 83.5 |  | 
3 | CC1(C)CC[C@]2(C(=O)NCC(=O)O)CC[C@]3(C)C(=CC[C@@H]4[C@@]5(C)Cc6c([nH]c7ccccc67)C(C)(C)[C@@H]5CC[C@]43C)[C@@H]2C1 | 9 | 95.2 | 
4 | CC1(C)CC[C@]2(C(=O)O)CC[C@]3(C)C(=CC[C@@H]4[C@@]5(C)Cc6nc7cc([N+](=O)[O-])ccc7nc6C(C)(C)[C@@H]5CC[C@]43C)[C@@H]2C1 | 24.1 | 88.7 | 
5 | CC(C)C[C@H](NC(=O)[C@]12CCC(C)(C)C[C@H]1C1=CC[C@@H]3[C@@]4(C)Cc5c([nH]c6ccc(Cl)cc56)C(C)(C)[C@@H]4CC[C@@]3(C)[C@]1(C)CC2)C(=O)O | 0 | 71.6 | 0
6 | COC(=O)[C@H](CC(C)C)NC(=O)[C@]12CCC(C)(C)C[C@H]1C1=CC[C@@H]3[C@@]4(C)CCC(=O)C(C)(C)[C@@H]4CC[C@@]3(C)[C@]1(C)CC2 | 92.9 |  | 100.2
7 | COC(=O)[C@H](C)NC(=O)[C@]12CCC(C)(C)C[C@H]1C1=CC[C@@H]3[C@@]4(C)Cc5c([nH]c6ccc(Cl)cc56)C(C)(C)[C@@H]4CC[C@@]3(C)[C@]1(C)CC2 | 10.1 | 79.9 | 
8 | CC1(C)CC[C@]2(C(=O)N[C@@H](Cc3ccccc3)C(=O)O)CC[C@]3(C)C(=CC[C@@H]4[C@@]5(C)Cc6nccnc6C(C)(C)[C@@H]5CC[C@]43C)[C@@H]2C1 | 89.4 |  | 
9 | CC1(C)CC[C@]2(C(=O)O)CC[C@]3(C)C(=CC[C@@H]4[C@@]5(C)Cc6c([nH]c7ccc([N+](=O)[O-])cc67)C(C)(C)[C@@H]5CC[C@]43C)[C@@H]2C1 | 0 | 83 | 38.6
10 | CC[C@H](C)[C@H](NC(=O)[C@]12CCC(C)(C)C[C@H]1C1=CC[C@@H]3[C@@]4(C)CCC(=O)C(C)(C)[C@@H]4CC[C@@]3(C)[C@]1(C)CC2)C(=O)O | 100.3 |  | 
11 | CC1(C)CC[C@]2(C(=O)N[C@@H](Cc3ccccc3)C(=O)O)CC[C@]3(C)C(=CC[C@@H]4[C@@]5(C)Cc6c([nH]c7ccc(Cl)cc67)C(C)(C)[C@@H]5CC[C@]43C)[C@@H]2C1 | 0 | 77.8 | 0
12 | C[C@H](NC(=O)[C@]12CCC(C)(C)C[C@H]1C1=CC[C@@H]3[C@@]4(C)Cc5c([nH]c6ccccc56)C(C)(C)[C@@H]4CC[C@@]3(C)[C@]1(C)CC2)C(=O)O | 21 | 90.2 | 
13 | COC(=O)[C@@H](NC(=O)[C@]12CCC(C)(C)C[C@H]1C1=CC[C@@H]3[C@@]4(C)Cc5c([nH]c6ccccc56)C(C)(C)[C@@H]4CC[C@@]3(C)[C@]1(C)CC2)C(C)C | 99 |  | 
14 | COC(=O)[C@H](Cc1ccccc1)NC(=O)[C@]12CCC(C)(C)C[C@H]1C1=CC[C@@H]3[C@@]4(C)Cc5c([nH]c6ccccc56)C(C)(C)[C@@H]4CC[C@@]3(C)[C@]1(C)CC2 | 0 | 69.2 | 79.8
15 | CC1(C)CC[C@]2(C(=O)NCC(=O)O)CC[C@]3(C)C(=CC[C@@H]4[C@@]5(C)Cc6c([nH]c7ccc(Cl)cc67)C(C)(C)[C@@H]5CC[C@]43C)[C@@H]2C1 | 0 | 74.2 | 0
16 | CC[C@H](C)[C@H](NC(=O)[C@]12CCC(C)(C)C[C@H]1C1=CC[C@@H]3[C@@]4(C)Cc5nc6ccccc6nc5C(C)(C)[C@@H]4CC[C@@]3(C)[C@]1(C)CC2)C(=O)OC | 78.5 |  | 
17 | COC(=O)[C@H](C)NC(=O)[C@]12CCC(C)(C)C[C@H]1C1=CC[C@@H]3[C@@]4(C)Cc5c([nH]c6ccccc56)C(C)(C)[C@@H]4CC[C@@]3(C)[C@]1(C)CC2 | 0 | 99.4 | 81.5
18 | COC(=O)[C@@H](NC(=O)[C@]12CCC(C)(C)C[C@H]1C1=CC[C@@H]3[C@@]4(C)Cc5c([nH]c6ccc(Cl)cc56)C(C)(C)[C@@H]4CC[C@@]3(C)[C@]1(C)CC2)C(C)C | 21.1 | 90.8 | 
19 | CC[C@H](C)[C@H](NC(=O)[C@]12CCC(C)(C)C[C@H]1C1=CC[C@@H]3[C@@]4(C)CCC(=O)C(C)(C)[C@@H]4CC[C@@]3(C)[C@]1(C)CC2)C(=O)OC | 1.4 | 94 | 
20 | COC(=O)CNC(=O)[C@]12CCC(C)(C)C[C@H]1C1=CC[C@@H]3[C@@]4(C)Cc5c([nH]c6ccc(Cl)cc56)C(C)(C)[C@@H]4CC[C@@]3(C)[C@]1(C)CC2 | 0 | 66.6 | 
21 | CC1(C)CC[C@]2(C(=O)N[C@@H](Cc3ccccc3)C(=O)O)CC[C@]3(C)C(=CC[C@@H]4[C@@]5(C)Cc6c([nH]c7ccccc67)C(C)(C)[C@@H]5CC[C@]43C)[C@@H]2C1 | 58 |  | 

Row | Compound | Activity [1] [%] | Activity [2] [%] | Activity [3] [%]
22 | CC1(C)CC[C@]2(C(=O)NCC(=O)O)CC[C@]3(C)C(=CC[C@@H]4[C@@]5(C)CCC(=O)C(C)(C)[C@@H]5CC[C@]43C)[C@@H]2C1 | 103 |  | 
23 | C[C@H](NC(=O)[C@]12CCC(C)(C)C[C@H]1C1=CC[C@@H]3[C@@]4(C)Cc5nccnc5C(C)(C)[C@@H]4CC[C@@]3(C)[C@]1(C)CC2)C(=O)O | 76.5 |  | 
24 | CC1(C)CC[C@]2(C(=O)N[C@@H](Cc3ccccc3)C(=O)O)CC[C@]3(C)C(=CC[C@@H]4[C@@]5(C)Cc6nc7ccccc7nc6C(C)(C)[C@@H]5CC[C@]43C)[C@@H]2C1 | 75.4 |  | 
25 | COC(=O)[C@@H](NC(=O)[C@]12CCC(C)(C)C[C@H]1C1=CC[C@@H]3[C@@]4(C)CCC(=O)C(C)(C)[C@@H]4CC[C@@]3(C)[C@]1(C)CC2)C(C)C | 100.6 |  | 
26 | COC(=O)[C@H](Cc1ccccc1)NC(=O)[C@]12CCC(C)(C)C[C@H]1C1=CC[C@@H]3[C@@]4(C)CCC(=O)C(C)(C)[C@@H]4CC[C@@]3(C)[C@]1(C)CC2 | 82.3 |  | 99.1
27 | COC(=O)[C@H](CC(C)C)NC(=O)[C@]12CCC(C)(C)C[C@H]1C1=CC[C@@H]3[C@@]4(C)Cc5c([nH]c6ccc(Cl)cc56)C(C)(C)[C@@H]4CC[C@@]3(C)[C@]1(C)CC2 | 86 |  | 
28 | CC1(C)CC[C@]2(C(=O)N[C@@H](Cc3ccccc3)C(=O)O)CC[C@]3(C)C(=CC[C@@H]4[C@@]5(C)CCC(=O)C(C)(C)[C@@H]5CC[C@]43C)[C@@H]2C1 | 80.7 |  | 
29 | CC(C)[C@H](NC(=O)[C@]12CCC(C)(C)C[C@H]1C1=CC[C@@H]3[C@@]4(C)CCC(=O)C(C)(C)[C@@H]4CC[C@@]3(C)[C@]1(C)CC2)C(=O)O | 99.8 |  | 
30 | COC(=O)[C@H](C)NC(=O)[C@]12CCC(C)(C)C[C@H]1C1=CC[C@@H]3[C@@]4(C)CCC(=O)C(C)(C)[C@@H]4CC[C@@]3(C)[C@]1(C)CC2 | 29.3 | 68.7 | 
31 | COC(=O)[C@H](CC(C)C)NC(=O)[C@]12CCC(C)(C)C[C@H]1C1=CC[C@@H]3[C@@]4(C)Cc5c([nH]c6ccccc56)C(C)(C)[C@@H]4CC[C@@]3(C)[C@]1(C)CC2 | 96.8 |  | 
32 | CC1(C)CC[C@]2(C(=O)NCC(=O)O)CC[C@]3(C)C(=CC[C@@H]4[C@@]5(C)Cc6nccnc6C(C)(C)[C@@H]5CC[C@]43C)[C@@H]2C1 | 85.1 |  | 
33 | CC(C)C[C@H](NC(=O)[C@]12CCC(C)(C)C[C@H]1C1=CC[C@@H]3[C@@]4(C)CCC(=O)C(C)(C)[C@@H]4CC[C@@]3(C)[C@]1(C)CC2)C(=O)O | 100.6 |  | 
34 | CC[C@H](C)[C@H](NC(=O)[C@]12CCC(C)(C)C[C@H]1C1=CC[C@@H]3[C@@]4(C)Cc5c([nH]c6ccc(Cl)cc56)C(C)(C)[C@@H]4CC[C@@]3(C)[C@]1(C)CC2)C(=O)OC | 82.4 |  | 
35 | COC(=O)CNC(=O)[C@]12CCC(C)(C)C[C@H]1C1=CC[C@@H]3[C@@]4(C)Cc5nccnc5C(C)(C)[C@@H]4CC[C@@]3(C)[C@]1(C)CC2 | 41.1 | 93.5 | 
36 | CC1(C)CC[C@]2(C(=O)O)CC[C@]3(C)C(=CC[C@@H]4[C@@]5(C)Cc6c([nH]c7ccccc67)C(C)(C)[C@@H]5CC[C@]43C)[C@@H]2C1 | 51.1 | 94.6 | 
37 | CC1(C)CC[C@]2(C(=O)NCC(=O)O)CC[C@]3(C)C(=CC[C@@H]4[C@@]5(C)Cc6nc7ccccc7nc6C(C)(C)[C@@H]5CC[C@]43C)[C@@H]2C1 | 91.9 |  | 
38 | C[C@H](NC(=O)[C@]12CCC(C)(C)C[C@H]1C1=CC[C@@H]3[C@@]4(C)Cc5nc6ccccc6nc5C(C)(C)[C@@H]4CC[C@@]3(C)[C@]1(C)CC2)C(=O)O | 96.5 |  | 
39 | CC(C)[C@H](NC(=O)[C@]12CCC(C)(C)C[C@H]1C1=CC[C@@H]3[C@@]4(C)Cc5c([nH]c6ccccc56)C(C)(C)[C@@H]4CC[C@@]3(C)[C@]1(C)CC2)C(=O)O | 6.1 | 70.8 | 
40 | C[C@H](NC(=O)[C@]12CCC(C)(C)C[C@H]1C1=CC[C@@H]3[C@@]4(C)CCC(=O)C(C)(C)[C@@H]4CC[C@@]3(C)[C@]1(C)CC2)C(=O)O | 100 |  | 
41 | CC[C@H](C)[C@H](NC(=O)[C@]12CCC(C)(C)C[C@H]1C1=CC[C@@H]3[C@@]4(C)Cc5c([nH]c6ccccc56)C(C)(C)[C@@H]4CC[C@@]3(C)[C@]1(C)CC2)C(=O)O | 84.4 |  | 
42 | CC1(C)CC[C@]2(C(=O)O)CC[C@]3(C)C(=CC[C@@H]4[C@@]5(C)CCC(=O)C(C)(C)[C@@H]5CC[C@]43C)[C@@H]2C1 [OLEANONIC ACID] | 1.4 | 79.2 | 
